Non-standard residues stand in square brackets, D forms with d. Residues, ends and D or L forms follow the SMILES beside them. No end group written: not given here. pGlu = O=C1CC[C@@H](C(=O)O)N1
Assays:
pancreatic β-cells = assay: insulin releasing activity (potentiation of the insulin releasing activity of glucose); conditions: qualitative ranking among the compounds prepared
[1] = reported in the literature; cited from earlier work

Question: Which “activity (insulin releasing)” value (pancreatic β-cells) does the source give for `O=C(O)CNC(=O)[C@H](CC(=O)O)NC(=O)[C@H](CC(=O)O)NC(=O)[C@@H]1CCC(=O)N1` [p-Glu-Asp-Asp-Gly, H-L-(PYRO) GLUTAMYL-L-ASPARTYL-L-ASPARTYL-GLYCINE] (HELM PEPTIDE1{[Glp].D.D.G}$$$$V2.0) here?
Answer: Especially active

Question: Which “hyperglycaemic and hyperinsulinaemic activity” value [1] does the source give for [pGlu]SDG here?
Answer: hyperglycaemic and hyperinsulinaemic activity

Question: For `NC(=O)CC[C@H](NC(=O)[C@@H]1CCC(=O)N1)C(=O)N[C@@H](CC(=O)O)C(=O)NCC(=O)O` [p-Glu-Gln-Asp-Gly, H-L-(PYRO) GLUTAMYL-L-GLUTAMINYL-L-ASPARTYL-GLYCINE] (HELM PEPTIDE1{[Glp].Q.D.G}$$$$V2.0), which “activity (insulin releasing)” value (pancreatic β-cells) is on record?
Answer: most active

Question: Which “activity (insulin releasing)” value (pancreatic β-cells) does the source give for `O=C(O)CC[C@H](NC(=O)[C@@H]1CCC(=O)N1)C(=O)N[C@@H](CC(=O)O)C(=O)NCC(=O)O` [p-Glu-Glu-Asp-Gly, H-L-(PYRO) GLUTAMYL-L-GLUTAMYL-L-ASPARTYL-GLYCINE] (HELM PEPTIDE1{[Glp].E.D.G}$$$$V2.0) here?
Answer: Especially active
